Assay results as given in patent US8946167B2, “Pharmaceutical compositions containing plasma protein” (priority 1997, dated 2015).

Tests used:
human gamma globulin = test: binding of active substance to human gamma globulin (ultrafiltration, HPLC); conditions: Example II.4; 2.25% human gamma globulin + 0.1 mg/ml paclitaxel in absolute ethanol 9:1; lyophilised, redissolved; UF
histamine release = test: hypersensitivity test: plasma histamine level in rats; assay type: in vivo, CRL (WI) BR male rats; conditions: around 7.0 mg/kG for paclitaxel i.v., blood after 2, 5 and 10 minutes
Procedure: Our study was performed on CRL (WI) BR male rats weighing 130-150 g [14]. […] A group for each time point and dose contained 5 animals. The blood samples were collected into heparin containing tubes after 2, 5 and 10 minutes of treatment. The plasma was separated by quick centrifugation. The samples were stored at −70° C.
The histamine content of the sample was C^14-methylated by specific histamine-N-methyl-transferase enzyme. The histamine level was determined in the plasma samples measuring the C^14 radioactivity in the samples.

For CC(=O)O[C@H]1C(=O)[C@@]2(C)[C@H]([C@H](OC(=O)c3ccccc3)[C@]3(O)C[C@H](OC(=O)[C@H](O)[C@@H](NC(=O)c4ccccc4)c4ccccc4)C(C)=C1C3(C)C)[C@]1(OC(C)=O)CO[C@@H]1C[C@@H]2O [paclitaxel], which “binding of paclitaxel to human gamma globulin” value (human gamma globulin) is on record?
The value was 98%.

What about the “histamine release induction (plasma histamine level)” value (histamine release) of the same molecule?
Its value is “do not show any such effect”.
